Data on one compound can be found in patent US20240368115A1, “REGULATOR CONTAINING TRICYCLIC DERIVATIVE, PREPARATION METHOD THEREFOR AND APPLICATION THEREOF” (SHUJING BIOPHARMA CO., LTD, priority 2021, published 2024).

Series [1] addresses T1, D2L receptor (Homo sapiens, UniProt P14416).
T1 construct: expressed in transfected cells
Description: D2L receptor cAMP agonist test. The class given is cell-based. Particulars: HEK293 cell strain stably expressing D2L receptor.

In series [2] the target is T2, D2S receptor (Homo sapiens, UniProt P14416).
T2 construct: expressed in transfected cells
T2 sequence (P14416 1-414 isoform P14416-2): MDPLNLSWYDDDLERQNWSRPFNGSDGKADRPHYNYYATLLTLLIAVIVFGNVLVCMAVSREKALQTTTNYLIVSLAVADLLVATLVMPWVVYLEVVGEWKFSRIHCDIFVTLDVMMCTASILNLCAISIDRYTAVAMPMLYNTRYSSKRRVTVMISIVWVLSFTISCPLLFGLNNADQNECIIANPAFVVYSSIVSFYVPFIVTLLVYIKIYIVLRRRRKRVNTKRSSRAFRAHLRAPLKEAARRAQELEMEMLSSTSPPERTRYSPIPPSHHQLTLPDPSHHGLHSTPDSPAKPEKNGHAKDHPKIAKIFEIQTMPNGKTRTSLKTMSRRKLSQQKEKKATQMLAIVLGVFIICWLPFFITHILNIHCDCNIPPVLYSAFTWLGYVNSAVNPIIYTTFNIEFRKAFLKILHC
Description: D2S receptor cAMP agonist test. The class given is cell-based. Particulars: HEK293 cell strain stably expressing D2S receptor.

The nature of series [3]: Pharmacokinetic test in mice. The class given is in vivo. As to conditions: male, ICR, mouse, plasma, po, 5 mg/kg, oral intragastric, single dose 5 mg/kg. The method in brief: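 Male ICR mice, fasted overnight, received a single oral gavage in 5% DMSO/95% of 20% aqueous cyclodextrin. Fundus-vein plasma was sampled from 0 to 24 h (3 time points per mouse) and assayed by LC-MS/MS. PK parameters came from non-compartmental analysis using the linear log-trapezoidal method.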

For series [4], the target named is 5-HT2B receptor (Homo sapiens, UniProt P41595). Description: Calcium flux test for 5-HT2B receptor. The class given is cell-based. Particulars: HEK293 cell strain stably expressing 5-HT2B receptor. From the text: • Fluo-4 calcium flux detection kit was purchased from Invitrogen; an HEK293 cell strain stably expressing 5-HT2B receptor was purchased from GenScript; serotonin was purchased from Sigma; methiothepin was purchased from Targetmol; polylysine-coated 384-well plates and 384-well compound plates were purchased from Greiner Bio-One. Molecular Device FLIPR, Agilent Bravo liquid workstation, and Countstar BioTech cell counter.
Sequence of 5-HT2B receptor (P41595 whole entry): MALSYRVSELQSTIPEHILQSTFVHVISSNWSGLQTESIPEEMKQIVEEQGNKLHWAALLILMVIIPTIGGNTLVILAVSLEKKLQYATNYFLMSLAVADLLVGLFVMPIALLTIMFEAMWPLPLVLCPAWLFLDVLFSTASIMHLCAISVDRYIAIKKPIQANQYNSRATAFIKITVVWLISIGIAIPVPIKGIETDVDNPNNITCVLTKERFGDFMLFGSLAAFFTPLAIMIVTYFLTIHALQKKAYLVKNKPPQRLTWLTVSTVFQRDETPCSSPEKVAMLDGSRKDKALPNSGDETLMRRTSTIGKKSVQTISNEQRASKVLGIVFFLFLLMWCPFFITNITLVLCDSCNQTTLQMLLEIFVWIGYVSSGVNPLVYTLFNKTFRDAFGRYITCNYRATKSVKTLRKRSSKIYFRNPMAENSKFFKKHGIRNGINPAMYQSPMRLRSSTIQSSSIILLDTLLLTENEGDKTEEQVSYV
• (1) The cultured cells were digested with trypsin, and the cell suspension was taken after the digestion was terminated. The cryopreserved cells were rapidly thawed in a water bath at 37° C., and the cells were resuspended in a plating medium. […] The pellet was resuspended in an appropriate amount of plating medium, 20 μL of cell suspension was counted using a cell counter, and the cell density was diluted to 1×10^6 cells/mL. • (2) 20 μL of cell suspension was added to a polylysine-coated 384-well plate (2×10^4 cells/well). • (3) The cell plate was incubated in a 37° C./5% CO2 incubator for 16-20 h.
• (1) The cell plate was taken out from the incubator and centrifuged at 100×g to remove the medium. […] The cell plate and agonist positive compound plate were placed into the FLIPR instrument, the detection program was run, 10 μL of the diluted compound was transferred from the agonist compound plate to the cell plate, and the fluorescence signal was read. […]
For orientation: Calcium flux is commonly read through the fluorescence of an indicator in the cells.

T1 sequence (P14416 whole entry): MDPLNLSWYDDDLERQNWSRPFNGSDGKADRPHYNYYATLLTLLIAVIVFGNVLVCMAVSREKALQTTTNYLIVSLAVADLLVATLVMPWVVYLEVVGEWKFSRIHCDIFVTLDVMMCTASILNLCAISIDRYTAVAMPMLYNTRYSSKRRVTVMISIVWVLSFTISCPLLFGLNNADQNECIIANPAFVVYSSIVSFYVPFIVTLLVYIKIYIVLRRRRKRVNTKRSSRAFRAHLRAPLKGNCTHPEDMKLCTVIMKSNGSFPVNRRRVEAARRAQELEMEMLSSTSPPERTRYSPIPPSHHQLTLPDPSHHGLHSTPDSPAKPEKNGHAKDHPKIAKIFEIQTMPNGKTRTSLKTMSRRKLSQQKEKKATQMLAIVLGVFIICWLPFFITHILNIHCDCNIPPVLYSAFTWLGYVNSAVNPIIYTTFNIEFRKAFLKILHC

As for `O=C1Nc2cc(OCCCCN3CCN(c4cccc(Cl)c4Cl)CC3)ccc2C2CC12` (stereo not drawn) [Example 1, 5-(4-(4-(2,3-Dichlorophenyl)piperazin-1-yl)butoxy)-3,7b-dihydro-1H-cyclopropa[c]quinolin-2(1aH)-one], the concentration giving a half-maximal response (EC50) (in general, the concentration that produces a half-maximal response) in series [1] (cAMP, forskolin 0.5 μM) was 0.62 nM; in series [2] (cAMP, forskolin 5×10^−7 M) it was 0.97 nM. Besides, the “D2L Max Act %” value in series [1] (positive control dopamine 1 μM) was found to be 54.4%. The “D2S Max Act %” value in series [2] (positive control dopamine 1×10^−7 M) was determined as 114.9%. Also, the half-life (usually the time in which the quantity being followed falls by half) in series [3] was 10.8 h. For the same compound, the AUC(0-inf) (commonly total exposure, with the tail of the curve extrapolated) in series [3] (read-out: AUC(0-inf)) is 7160 ng·h/mL. In series [3] (read-out: Cmax), the Cmax (usually the maximum level reached in the sampled fluid or tissue) came to 511 ng/mL. Also, in series [4] (calcium flux, antagonism of serotonin), the IC50 – broadly, the point on the concentration scale where inhibition reaches its midpoint – came to 658 nM. Besides, in series [4] (positive control methiothepin 10^−5 M), the “5-HT2B Max Inh %” value was 105.8%.
